“Also recorded” adds a separate entry of the source.
Key:
Assay type in all cases: cell-based
Bacillus coagulans = test: Viability and colony formation of Bacillus coagulans supplemented with MSM (population count, weight, percent transmittance); conditions: for Population Count Average / Population Weight Average: 72 hours; for Population Weight Average: washed pellet; for percent transmittance: 25×25 mm agar section, 546 nm
Procedure: At the end of the 72 hours, the broth was measured for colony formation, with photographic documentation of colony formation on tryptic soy agar. […] For the Bacillus coagulans, the organism was isolated and grown for 24 hours before harvesting. […] One milliliter of Dilution B was used to inoculate the 30 mL of TSB concentrations stated above. […] Each dilution for the microorganism was plated in triplicate for each sample. To capture the appropriate colonies per milliliter, the microorganism was plated at six different dilutions. […] The population count was based on the dilution of the tryptic soy broth after 72 hours and inoculation on to tryptic soy agar plates. The plates were incubated for 48 hours and enumerated. The tryptic soy broth after 72 hours was centrifuged down in a conical vial. The supernatant was pulled off and the pellet was washed. The centrifuging and washing was repeated three times. At the end of the third wash, the vials with pellet were weighed. Each vial was weighed empty and recorded. The corresponding vial weight was then subtracted from the ending weight of the pellet and vial, to get the weight of the Bacillus coagulans population. […] The slides were sealed to prevent the agar plug from slipping. The wavelength was set at 546 nm, and two empty slides were used as a blank. […] The weights indicated a heavier growth or a colony that was larger in size adding to the weight of the biomass. The percent transmittance was used to indicate Bacillus coagulans colony size in which a decrease in transmittance indicates an increase in colony size as the colony inhibited light from passing through the agar. […] It was observed that the percent transmittance result may be influenced by the sample size, sample location and agar variables.

Staphylococcus aureus = test: USP <51> AET in cosmetic cream / cosmetic compositions, 28 days; conditions: for Log Reduction from Initial Microorganism Inoculum: 14 Days, 28 Days
Excerpt: The cosmetic cream matrix into which the MSM was incorporated was preservative free. An additional cream, with a preservative, was also spiked with E. coli and evaluated.

[1] = tested on: White Labs Edinburgh Ale yeast; test: Fermentation efficiency in production of beer (Scotch Ale) with 0.5% MSM; conditions: for F.G. (Adjusted for Alc and Temp): 0.5% MSM fermentor
Excerpt: This positive impact includes such organisms as fungi, yeast, and bacteria. Yeast cultures are involved in the production of beer during the fermentation process to produce ethanol and carbon dioxide. […] Wort is the liquid extracted from the mashing process during the brewing of beer or whisky. Wort contains the sugars that are fermented by the brewing yeast to produce alcohol. […] This Procedure is detailed below. […] (1) glass jugs, airlocks and funnel were thoroughly cleaned and then rinsed with beer sanitizer; (2) 1000 mLs of water was boiled then 100 grams of DME was added; (3) sample was boiled for 10 minutes; […] The Treatment Starter batch was then placed in a sanitized 64 ounce glass jug using to which 1-vial of White Labs Edinburgh Ale yeast was added. The airlock was applied and the entire vessel was placed in a dark room at room temperature for 48 hours. […] (1) glass jugs, airlocks and funnel were thoroughly cleaned and then rinsed with beer sanitizer; (2) 1000 mLs of water was boiled then 100 grams of DME was added; (3) sample was boiled for 10 minutes; (4) sample was removed from heat; and (5) solution was allowed to cool to 72° F. The Treatment Starter batch was then placed in a sanitized 64 ounce glass jug using to which 1-vial of White Labs Edinburgh Ale yeast was added. The airlock was applied and the entire vessel was placed in a dark room at room temperature for 48 hours. […] Materials to prepare the mash included the following: 18 lb of American 2-Row base grain; 3 lb of Crystal Malt 40 L specialty grain; 1 lb […] specialty grain; and water. A mash tun (a vessel used in the mashing process to convert the starches in crushed grains into sugars for fermentation) and Brew kettle were cleaned with powdered brewers wash and rinsed thoroughly. The mash tun was then sanitized (San Star Brewing Sanitizer). The following grains were crushed and milled for mashing: 18 lb of American 2-Row base grain; 3 lb of Crystal Malt 40 L specialty grain; and 1 lb […] specialty grain. […] The crushed grains were then added and the solution was mixed thoroughly. The lid was attached and the solution allowed to mash for 60 minutes. […] Strike water was preheated to 168° F., added to the mash tun and mix thoroughly with grain. The mixture was allowed to incubate for 10 minutes. […] After preparing the mash, the brewing process was started. […] Equipment was cleaned thoroughly with PBW. The wort chiller and filtered air stone were sanitized with brewing sanitizer (San Star Brewing Sanitizer). […] At 30 minutes of boil, a second aliquot (0.5 ounces) of Cascade hops was added. At 40 minutes of boil, third aliquot (0.5 ounces) of Cascade hops was added as well as 2 teaspoons of […] Moss. At 50 minutes of boil, a fourth aliquot (0.5 ounces) of Cascade hops was added. […] Each fermentor was Brix tested every 24 hours for 21 days. Both fermentors were aerated for 25 minutes with sanitized filtered air stone. MSM infused yeast was pitched into treatment fermentor vessel while unaltered yeast was pitched into control fermentor vessel. Blow-off tubes were attached to both fermentors and fermentation was allowed to proceed for 21 days.

[2] = tested on: ATCC strain 8739 Escherichia coli; test: Bromcresol Purple colour change with E. coli
Procedure: Bromcresol Purple is an indicator dye that turns yellow in the presence of E. coli bacteria. […] All concentrations were plated out to 10^−7 dilutions to ascertain the log reduction.
Flake OptiMSM was weighed out using a certified Mettler Toledo AG245 balance SN: 1115210833 and aliquoted for each concentration. […] Tubes were cooled to room temperature which was approximately 20° C. All tubes were then spiked with the same dilution of Escherichia coli that gave a level of colony forming units at 6.0×10^6/mL (6.8). The tubes were then incubated at 25° C. Daily observation for color change was performed during the first seven days. The tubes were mixed periodically to ensure that the OptiMSM was well equilibrated at all times. A positive and negative control was ascertained.

CS(C)(=O)=O [MSM, Methylsulfonylmethane]
Population Count Average (Bacillus coagulans; 1.0% MSM in TSB): 1.01 × 10^11
Population Weight Average (Bacillus coagulans; 1.0% MSM in TSB): 0.1363
percent transmittance (Bacillus coagulans; 1.0% MSM): 51.5%
Population Count Average (Bacillus coagulans; 5.0% MSM in TSB): 2.8 × 10^11
Population Weight Average (Bacillus coagulans; 5.0% MSM in TSB): 0.1260
percent transmittance (Bacillus coagulans; 5.0% MSM): 45.6%
Population Count Average (Bacillus coagulans; […] MSM in TSB): 3.3 × 10^11
Population Weight Average (Bacillus coagulans; […] MSM in TSB): 0.9828
percent transmittance (Bacillus coagulans; […] MSM): 49.8%
Microbial growth (count) (Staphylococcus aureus; 10% MSM in cosmetic cream without preservative, 48 hrs-28 days): <10
Log Reduction from Initial Microorganism Inoculum (Staphylococcus aureus; 10% MSM in preservative-free jojoba cosmetic cream): 5.6 log
Log Reduction from Initial Microorganism Inoculum (Staphylococcus aureus; 10% MSM, Preservative Free Cosmetic Composition #1): 5.7 log
Log Reduction from Initial Microorganism Inoculum (Staphylococcus aureus; 10% MSM, Preservative Free Cosmetic Composition #2): 5.7 log
F.G. (Adjusted for Alc and Temp) ([1]; Day 1): 1.026
F.G. (Adjusted for Alc and Temp) ([1]; Day 2): 1.018
F.G. (Adjusted for Alc and Temp) ([1]; Day 3): 1.016
F.G. (Adjusted for Alc and Temp) ([1]; Day 4): 1.016
F.G. (Adjusted for Alc and Temp) ([1]; Day 5): 1.015
F.G. (Adjusted for Alc and Temp) ([1]; Day 6): 1.015
F.G. (Adjusted for Alc and Temp) ([1]; Day 7): 1.015
F.G. (Adjusted for Alc and Temp) ([1]; Day 8): 1.015
F.G. (Adjusted for Alc and Temp) ([1]; Day 9): 1.015
F.G. (Adjusted for Alc and Temp) ([1]; Day 10): 1.015
F.G. (Adjusted for Alc and Temp) ([1]; Day 11): 1.015
F.G. (Adjusted for Alc and Temp) ([1]; Day 12): 1.015
F.G. (Adjusted for Alc and Temp) ([1]; Day 13): 1.015
F.G. (Adjusted for Alc and Temp) ([1]; Day 14): 1.015
F.G. (Adjusted for Alc and Temp) ([1]; Day 15): 1.015
F.G. (Adjusted for Alc and Temp) ([1]; Day 16): 1.015
F.G. (Adjusted for Alc and Temp) ([1]; Day 17): 1.015
F.G. (Adjusted for Alc and Temp) ([1]; Day 18): 1.015
F.G. (Adjusted for Alc and Temp) ([1]; Day 19): 1.015
F.G. (Adjusted for Alc and Temp) ([1]; Day 20): 1.015
F.G. (Adjusted for Alc and Temp) ([1]; Day 21): 1.015
time to maximum fermentation ([1]; 0.5% MSM treatment batch): 5 days
sooner time of completion ([1]; 0.5% MSM treatment batch vs control (6 days)): 17-25%
time to activity ([1]; fermentor with 0.5% MSM): 3.5 h
activity sooner than the control ([1]; fermentor with 0.5% MSM (3.5 hours compared to 9 hours)): 58%
activity sooner than the control ([1]; yeast starter with 0.5% MSM (2 hours compared to 10 hours)): 80%
Bromcresol Purple colour of the broth ([2]; 5-7% MSM, Day one): color change of the broth to yellow
Bromcresol Purple colour of the broth ([2]; 8% MSM, listed as order: Day one, Day three): slight clearing of color; also recorded: turning to the typical yellow color
Bromcresol Purple colour of the broth ([2]; 9% MSM, Day 7): turning to a yellow color
Bromcresol Purple colour of the broth ([2]; 10%-16% MSM, listed as order: Day 7, Day 30): No color change; also recorded: no signs of change
